Where two headings read alike, the source gives them in different places.
Experiments:
endogenous TFEB = assay: TFEB nuclear translocation, immunocytochemistry high-content imaging; assay type: cell-based
endogenous TFE3 = assay: TFE3 nuclear translocation, immunocytochemistry high-content imaging; assay type: cell-based
SH-SY5Y cells [1] = test system: SH-SY5Y cells; note: reference of the scale not given here
SH-SY5Y cells [2] = assay: AK (adenylate kinase) release ToxiLight cytotoxicity assay; note: reference of the scale not given here
SH-SY5Y cells [3] = assay: Nuclear count from microscopy images (cellular growth and toxicity); note: reference of the scale not given here
[4] = PKIS2 primary screening, DQ Red BSA intensity
[5] = PKIS2 primary screening, DQ Red BSA spot count

Structure (SMILES) | TFEB % (endogenous TFEB; PKIS2 primary screening) [%] | TFE3 % (endogenous TFE3; PKIS2 primary screening) [%] | DQ Intensity (SH-SY5Y cells [1]; PKIS2 primary screening) | DQ Spot (SH-SY5Y cells [1]; PKIS2 primary screening) | AK (SH-SY5Y cells [2]; PKIS2 primary screening) | Nuclear Count (SH-SY5Y cells [3]; PKIS2 primary screening) | DQ Intensity (SH-SY5Y cells [1]; [4]) | DQ Spot (SH-SY5Y cells [1]; [5]) | TFEB % (endogenous TFEB; PKIS2 primary screen) [%] | TFE3 % (endogenous TFE3; PKIS2 primary screen) [%] | DQ Intensity (SH-SY5Y cells [1]; PKIS2 primary screen, DQ Red BSA intensity) | DQ Spot (SH-SY5Y cells [1]; PKIS2 primary screen, DQ Red BSA spot count) | AK (SH-SY5Y cells [2]; PKIS2 primary screen) | Nuclear Count (SH-SY5Y cells [3]; PKIS2 primary screen)
Cc1ccccc1COc1cc(-n2cnc3cc(Cl)ccc32)sc1C(N)=O [UNC10225491A] | 9.14 | 6.85 | 119.27 | 99.65 | 190.42 | 71.39 |  |  |  |  |  |  |  | 
Cc1nccc(-c2c(-c3ccc(F)cc3)ncn2CCCN2CCOCC2)n1.Cl [UNC10225493A] | 4.71 | 13.96 | 90.01 | 96.19 | 100.35 | 97.00 |  |  |  |  |  |  |  | 
Nc1nccc2scc(-c3ccc4c(c3)CCN4C(=O)Cc3cc(F)ccc3F)c12 [UNC10225494A] | 3.18 | 17.46 |  |  | 74.58 | 97.20 | 123.47 | 108.12 |  |  |  |  |  | 
COc1cc2ncn(-c3cc(OCC4CCCCC4)c(C(N)=O)s3)c2cc1OC [UNC10225496A] | 3.76 | 7.72 | 104.41 | 104.84 | 73.76 | 113.87 |  |  |  |  |  |  |  | 
Cn1cncc1-c1ccc2ncnc(Nc3ccc(OCc4ccccc4)cc3)c2c1 [UNC10225497A] | 8.56 | 13.09 |  |  | 50.65 | 104.34 | 100.86 | 83.02 |  |  |  |  |  | 
Cc1cccc(-c2cc(-c3c[nH]nc3-c3ccccn3)ccn2)c1 [UNC10225499A] | 5.43 | 5.64 |  |  | 88.92 | 133.11 | 88.33 | 90.33 |  |  |  |  |  | 
Nc1ncc(-c2cn[nH]c2)c2scc(-c3ccc4c(c3)CCN4C(=O)Cc3ccccc3)c12 [UNC10225500A] | 8.67 | 18.45 |  |  | 74.47 | 110.94 | 108.00 | 96.83 |  |  |  |  |  | 
Cc1nnc(-c2ccc(C)c(-c3ccc(C(=O)O)cc3)c2)o1 [UNC10225501A] | 7.30 | 10.21 | 75.58 | 83.30 | 95.30 | 117.94 |  |  |  |  |  |  |  | 
O=C(NCc1cccs1)c1cc(C(=O)c2c(Cl)cccc2Cl)c[nH]1 [UNC10225502A] |  |  |  |  |  |  |  |  | 6.92 | 7.89 | 112.22 | 106.20 | 136.34 | 105.30
NCCC(NC(=O)c1cc(Br)c(-c2ccnc3[nH]ccc23)s1)c1ccccc1.O=C(O)C(F)(F)F.O=C(O)C(F)(F)F (stereo not drawn) [UNC10225503A] | 3.19 | 15.14 |  |  | 81.01 | 121.43 | 126.00 | 127.76 |  |  |  |  |  | 
CN(C)c1ncnc2nc[nH]c12 [UNC10243858A] | 5.99 | 16.40 | 152.14 | 119.94 | 79.19 | 91.65 |  |  |  |  |  |  |  | 
[2H]C([2H])(c1cccc(C(F)(F)F)c1C)n1ccn2c(=O)nc(N3CCOCC3)cc12 [UNC10243860A] | 4.33 | 12.75 | 104.50 | 118.55 | 87.88 | 110.69 |  |  |  |  |  |  |  | 
Cc1c(Cn2ccn3c(=O)cc(N4CCOCC4)nc23)cccc1C(F)(F)F [UNC10243861A] | 1.67 | 6.09 | 74.52 | 79.14 | 106.43 | 146.89 |  |  |  |  |  |  |  | 
CNc1ncnc2[nH]ncc12 [UNC10243862A] | 5.21 | 11.00 | 93.16 | 103.80 | 111.70 | 108.49 |  |  |  |  |  |  |  | 
Nc1ncnc2[nH]c(-c3ccccc3)nc12 [UNC10243863A] | 9.65 | 10.89 | 154.91 | 119.26 | 85.62 | 66.20 |  |  |  |  |  |  |  | 
Cc1occc1-c1ncc(OC[C@@H](N)Cc2c[nH]c3ccccc23)cc1-c1ccc2[nH]nc(C)c2c1.O=C(O)C(F)(F)F [UNC10243880A] | 19.77 | 39.74 | 77.42 | 58.66 | 148.86 | 69.84 |  |  |  |  |  |  |  | 
CSc1nn2c(=O)cc(N3CCOCC3)nc2n1Cc1cccc(C(F)(F)F)c1C [UNC10243881A] | 6.63 | 9.67 | 80.81 | 106.13 | 100.35 | 93.06 |  |  |  |  |  |  |  | 

Source: PMC9851200, “Multiparameter phenotypic screening for endogenous TFEB and TFE3 translocation identifies novel chemical series modulating lysosome function” (Autophagy, 2022)
